Structures are written as SMILES. “Also recorded” adds a separate entry of the source. Read-outs that look alike come from different tables or passages of the source.

Data set [1] has as its system Human primary macrophages. Put plainly: CRISPR/Cas9 gene editing of Beta 2 Microglobulin, loss of B2M expression by flow cytometry. The conditions noted are these: 1 μM iX, FIG. 7, n=4. In kind it is cell-based. The text has this:
(§1) The recent emergence of the clustered, regularly interspaced, palindromic repeats (CRISPR) system for gene editing has the potential to overcome these limitations. The CRISPR technology utilizes a fixed nuclease, often the CRISPR-associated protein 9 (Cas9) from Streptococcus pyogenes, in combination with a short guide RNA (gRNA) to target the nuclease to a specific DNA sequence. We confirmed that gRNA recognition and thus editing efficacy could be increased with introduction of iX inhibitor. […]
(§2) The following commercially available guide RNAs from Origene Technologies were tested against Beta 2 Microglobulin: […] […] 48 hours post-transfection, cells were stained with anti-B2M antibody (clone:2M2, Biolegend) to compare loss of (32 m expression. Cells were then analysed using flowcytometry as described below.
(§3) All antibody stainings for flow cytometry were done according to the following protocol: For surface stainings, the cells were washed once with PBS and incubated with appropriate amounts of antibody at 4° C. for 30 min. […] Data were analysed with the FlowJo software (TreeStar Inc.). […]
In general terms: In flow cytometry, cells or beads pass a laser one at a time.

Data set [2] has as its system NK-92 cells. Put plainly: Gene expression profiling by RNAseq during lentiviral transduction. In kind it is cell-based, human. To be noted: end of 6 hour transduction, FIGS. 6A-H. The method, then: Gene expression profiling by RNAseq for identification of pathways triggered by lentivirus entry in the absence and presence of small molecule inhibitors are assessed. NK-92 cells are transduced as previously described. At the end of the 6 hour transduction protocol, RNA from the cells is extracted and sequenced on a HiSeq 2500 instrument. After quality control, the reads are mapped to the human genome using the STAR aligner and gene abundance is estimated with HT-Seq. Differential expression is analyzed using DeSeq software. […] (FIG. 5).

A further data set concerns IRF3. As to the kind of experiment: IRF3 expression at protein level during lentiviral transduction. The conditions noted are these: for change in IRF3 expression at the protein level: after the 6 hour transduction period; for change in IRF3 expression: at 24 hours, FIG. 3. It counts as cell-based. The text has this: (§4) FIG. 3 contains photos of a gel showing iX treatment during lentiviral transduction decreases RIG-I and IRF-3.

A further data set relates to primary human NK cells. Put plainly: Lentiviral transduction (LeGO-G2, GFP expression) of primary NK cells. It counts as cell-based. To be noted: 6 μM during lentiviral transduction, FIG. 1. The method, then:
(§5) FIG. 1 contains two bar graphs showing the inhibition of innate immune signaling with iX enhances lentiviral transduction efficiency in NK cells. NK-92 cells and primary human NK cells isolated from healthy donor PBMCs were subjected to lentiviral transduction in the presence of 6 μM BX795 or iX for 6 hours. GFP expression is acquired 72 hours later. +cell percentages are shown on graph.
[…]. Next day cells were transfected with 30 μg of LeGO-G2 plasmid (courtesy of Prof. Boris Fehse, University Medical Center Hamburg-Eppendorf, Hamburg, Germany), 15 μg of pMDLg/pRRE (Addgene, Cambridge, Mass., USA), 10 μg of pRSV-REV (Addgene) and 5 μg of phCMV-VSV-G (Addgene) using calcium phosphate transfection kit (Sigma-Aldrich) in the presence of 25 μM Chloroquine (Sigma-Aldrich). […]
The peripheral blood mononuclear cells (PBMCs) were isolated by gradient centrifugation, using Lymphoprep (Nyegaard, Oslo, Norway) and washed twice with phosphate-buffered saline (PBS) (GIBCO, Grand Island, N.Y., USA). Cell count and viability were assessed by Turk and Trypan Blue dye exclusion. […]
as §3

The next data set deals with NK92 cells. As to the kind of experiment: IFNγ secretion upon exposure to lentiviral particles. In kind it is cell-based, human. The conditions noted are these: FIG. 4. The text has this:
FIG. 4 contains two bar graphs showing that iX treatment interferes with anti-viral cytokines IFNγ and TNF secretion.
(FIG. 4). […] (FIG. 4). […] (FIG. 4).

Data set [3] relates to NK cells. Put plainly: Dose dependence of lentiviral transduction with LeGO-G2 virus, GFP+ cells by flow cytometry. In kind it is cell-based, human. As to the method: Primary human NK cells and NK-92 cells are transduced with LeGO-G2 virus in the presence of varying doses of BX795 or iX for 6 hours. GFP expression is analyzed by flow cytometry 72 hours after transduction. GFP+ cell percentages are shown on graph. Data from three independent experiments, each run in triplicates.
For each lentiviral transduction, 0.25×10^6 NK cells per well were seeded in a 24-well plate (BD Biosciences) and mixed with an appropriate amount of virus supernatant in the presence of 8 μg/ml of protamine sulfate (Sigma-Aldrich) or polybrene (Sigma-Aldrich) in a final volume of no more than 1 ml. The cytokines were replenished and plates were centrifuged at 1000×g for 1 hour at room temperature. After centrifugation, without removing viral supernatants, the plates were incubated at 37° C., 5% CO2 for 4-6 hours. At the end of the incubation, a second centrifugation at 1000×g for 1 hour at room temperature was carried out, after which the supernatants were removed from the wells and 1 ml of fresh NK cell growth medium (CellGro SCGM supplemented with 10% Human AB Serum) per well was added. The cells were maintained in this medium with daily addition cytokines (IL-2: 1000 U/ml, and IL-21: 20 ng/ml. Combinations of cytokines were used as indicated in FIG. 1. Only IL-2 and IL-21 were used in the rest of the experiments) for at least 3 days before acquisition of eGFP expression was carried out. In indicated experiments, the following inhibitors were present during the transduction: BX795 (Invivogen) and (5Z)-7-Oxozeaenol (iX) (Tocris).
For the transduction of cell lines, 2×10^5 cells per well were seeded into 24-well plates. Treatment with 6 μM BX795 and (5Z)-7-Oxozeaenol (iX) was initiated simultaneously with the transduction process. Appropriate amount of viral supernatants were added into the wells along with protamine sulfate (NK92, cells) and the total volume was adjusted to 500 μl. The plates were centrifuged at 1000×g for 1 hour followed by incubation at 37° C., 5% CO2 for 4-6 hours, after which the virus containing supernatant was removed and fresh growth media was added. The cells were grown for at least 3 days before acquisition of eGFP expression was carried out.
All antibody stainings for flow cytometry were done according to the following protocol: For surface stainings, the cells were washed once with PBS and incubated with appropriate amounts of antibody at 4° C. for 30 min. The labeled cells were then washed with PBS and fixed in 1% PFA prior to data acquisition. Data acquisition was done on a FACSCalibur (BD Biosciences), CyFlow ML (Partec GmbH, Munster, Germany) and LSRII-Fortessa (BD Biosciences) with standard filters. Data were analysed with the FlowJo software (TreeStar Inc.). […]

A further data set concerns CD34+ HSCs. As to the kind of experiment: CRISPR/Cas9 gene editing of Beta 2 Microglobulin, loss of B2M expression by flow cytometry. It counts as cell-based, human. The conditions noted are these: 1 μM iX, hematopoietic stem cells, FIG. 7, n=4.
Source text: as §1, §2, §3

The subject of another data set is NK92 cell line. The data set is described as above. It counts as cell-based, human. To be noted: 1 μM iX, NK cells (NK92), FIG. 7, n=4.
Source text: as §1, §2, §3

The subject of data set [4] is NK-92 cells. Put plainly: Lentiviral transduction (GFP expression) of NK-92 cell line. It counts as cell-based, human. The conditions noted are these: 6 μM during lentiviral transduction, NK-92, FIG. 1. As to the method:
as §5
[…]. Next day cells were transfected with 30 μg of LeGO-G2 plasmid (courtesy of Prof. Boris Fehse, University Medical Center Hamburg-Eppendorf, Hamburg, Germany), 15 μg of pMDLg/pRRE (Addgene, Cambridge, Mass., USA), 10 μg of pRSV-REV (Addgene) and 5 μg of phCMV-VSV-G (Addgene) using calcium phosphate transfection kit (Sigma-Aldrich) in the presence of 25 μM Chloroquine (Sigma-Aldrich). 10 hours after transfection, the medium was changed and thereafter virus containing supernatant was collected every 24 hours for 2-3 days and stored in −80° C. until further use. A small aliquot from each production was used to determine viral titers by transduction of 293FT cells with serially diluted amounts of virus supernatant. […]
as §3

The test system of the next data set is RIG-I. Put plainly: RIG-I expression at protein level during lentiviral transduction. In kind it is cell-based. To be noted: for change in RIG-I expression at the protein level: after the 6 hour transduction period; for change in RIG-I expression: at 24 hours, FIG. 3.
Source text: as §4

Data set [5] deals with NK cells. Put plainly: Annexin-V/PI staining for toxicity. In kind it is cell-based. The conditions noted are these: for toxicity on NK cells (apoptotic and dead cells) compared to DMSO controls: 1.5 μM; for toxicity on NK cells (apoptotic and dead cells): 6 μM. From the text: FIG. 2B contains two bar graphs comparing apoptotic to dead Annexin −V^+/PI^−cells.
Remarkably, the use of iX at the optimum concentration presents no immediate toxic effects on NK cells as determined by Annexin-V/PI staining after […] treatment (FIG. 2b).

For data set [6], the system named is NK cells. The conditions noted are these: cited from earlier work.

For the molecule `COc1cc(O)c2c(c1)/C=C/C[C@H](O)[C@H](O)C(=O)/C=C\C[C@H](C)OC2=O` [iX, (5Z)-7-Oxozeaenol], in [1], the “β2M gene editing efficacy” value was “increased (32M editing significantly”. In addition, the “effect on anti-viral response pathways at mRNA level” value with NK-92 cells [2] is “affected pathways associated with anti-viral responses”. Further, in the data set on IRF3, the “extent of downregulation in IRF3 compared to BX795” value is “significantly more”, the “change in IRF3 expression at the protein level” value is “not detectable” and the “change in IRF3 expression” value was “significant decrease”. The “improvement in lentiviral gene delivery” value in the data set with primary human NK cells was “statistically significant improvement”. Also, the “secretion of IFNγ” value in the data set with NK92 cells (six hours, during lentiviral gene delivery) is reported as “significantly decreased”. Further, in the data set on NK cells [3] (NK cells), the “enhancement of lentiviral gene delivery compared to BX795” value is “to a further extent; also recorded: significantly higher extent” and the “optimum dose for lentiviral gene delivery” value is 1.5 µM. Also, the “effect of concentration on genetic modification efficiency” value in the data set with NK cells [3] (varying doses, FIG. 2A) was “dose-dependent effect”. Moreover, the “β2M gene editing efficacy” value in the data set on CD34+ HSCs is recorded as “increased (32M editing significantly”. Besides, the “β2M gene editing efficacy” value in the data set with NK92 cell line is on record as “increased (32M editing significantly”. In addition, in the data set on NK-92 cells [4], the “improvement in lentiviral gene delivery” value is given as “statistically significant improvement”. Besides, in the data set on RIG-I, the “extent of downregulation in RIG-I compared to BX795” value is recorded as “significantly more”, the “change in RIG-I expression at the protein level” value is on record as “not detectable” and the “change in RIG-I expression” value is “significant decrease”. In the data set with NK cells [5], the “toxicity on NK cells (apoptotic and dead cells) compared to DMSO controls” value is given as “no significant toxicity”; the “toxicity on NK cells (apoptotic and dead cells)” value is reported as “no signs of immediate toxicity”.

On to `O=C(NCCCNc1nc(Nc2cccc(NC(=O)N3CCCC3)c2)ncc1I)c1cccs1` [BX795], for which, in the data set with NK-92 cells [2], the “effect on anti-viral response pathways at mRNA level” value is recorded as “failed to fully suppress similar anti-viral responses”. In the data set with IRF3, the “change in IRF3 expression at the protein level” value is reported as “not detectable” and the “change in IRF3 expression” value is recorded as “significant decrease”. For the same molecule, the “secretion of IFNγ” value with NK92 cells (24 hours after exposure to lentiviral particles) is “significantly trigger similar effect”. Further, the “optimum dose for lentiviral gene delivery” value in the data set with NK cells [3] (NK cells) was 6 µM. Further, in the data set on RIG-I, the “change in RIG-I expression at the protein level” value was “not detectable” and the “change in RIG-I expression” value was “significant decrease”. For the same molecule, in the data set with NK cells [5], the “toxicity on NK cells (apoptotic and dead cells) compared to DMSO controls” value is “no toxicity”; the “toxicity on NK cells (apoptotic and dead cells)” value is recorded as “quite small but statistically significant increase”. Moreover, the “transduction efficiency in NK cells” value in the data set with NK cells [6] (previously reported (Sutlu et al., 2012)) is recorded as “dramatically increases”. For the same molecule, in the data set with NK cells [6] (shown previously), the “effect of concentration on genetic modification efficiency” value was “dose-dependent effect”.
